Measured values: patent publication US20230084144A1, “THERAPEUTIC COMBINATIONS OF DRUGS AND METHODS OF USING THEM” (ConSynance Therapeutics, Inc., priority 2020, published 2023)
Values joined by “and” are separate entries in the source; they are usually repeats but may differ in a detail not shown here. Equal entries are not always repeated.

Experiments:
[1] = biological target: T1, Transporter, Dopamine (DAT) (Homo sapiens, UniProt Q01959); test: Radioligand binding, Transporter, Dopamine (DAT) (Eurofin Discovery 220320); conditions: 100 nM compound
T1 construct: host or cells: CHO-S cells

[2] = biological target: T2, Transporter, Norepinephrine (NET) (Homo sapiens, UniProt P23975); test: Radioligand binding, Transporter, Norepinephrine (NET) (Eurofin Discovery 204410); conditions: 100 nM compound
T2 construct: host or cells: MDCK cells

[3] = biological target: T3, serotonin transporters (SERT) (Homo sapiens, UniProt P31645); test: PET receptor occupancy at SERT, tracer 11C-MADAM; type: in vivo; conditions: for SERT RO%: healthy males
T3 construct: from tissue; host or cells: brain (striatum, thalamus) of healthy male volunteers, in vivo PET
From the text: (§1) The PET study was a part of a strategy in previous clinical development of the compound of formula I to evaluate in healthy male volunteers with respect to safety, tolerability and pharmacokinetics as well as DAT and SERT occupancy.
(§2) The relationship between plasma the compound of formula I concentration and SERT occupancies, using the individual values, is presented in FIG. 8 and FIG. 9. The numeric values for the individual SERT and […] occupancy and the corresponding plasma concentrations are tabulated in Example 12.
(§3) Striatal receptor occupancy at dopamine transporters (DAT) and serotonin transporters (SERT) with plasma concentrations of Formula I at the midpoint time of the post dosing PET (positron emission tomography) scans (T=4 and 24) after once-a-day multiple doses of 3-60 mg and 10-60 mg for SERT and DAT healthy male cohorts, respectively (Tables below, RO stands for receptor occupancy). Post dosing PET scans were conducted at day 10 (4 h post last dose) and day 14 (24 h post last dose) assuming steady state conditions, using the specific DAT and SERT tracers ^11 C-PE2I and ^11 C-MADAM, respectively. For 45 mg and 60 mg cohorts, there was titration by administration of 30 mg for 3 days and then from day 4 the specified dose. Representative reports on using these two tracers are Learned-Coughlin SM et al, Biol Psychiatry.2003, 54(8):800-5; Jucaite A et al, Eur J Nucl Med Mol Imaging. 2006, 33(6):657-68; and Lundberg J et al, Int J Neuropsychopharmacol. 2007, 10(6):777-85.

[4] = biological target: T4, dopamine transporters (DAT) (Homo sapiens, UniProt Q01959); test: PET striatal receptor occupancy at DAT, tracer 11C-PE2I; type: in vivo; conditions: following multiple doses of 60 mg, PET study in healthy males
T4 construct: from tissue; host or cells: striatum of healthy male volunteers, in vivo PET
From the text: as §1, §2
as §3, with “Representative reports on using these two tracers are Learned-Coughlin SM et al, Biol Psychiatry.2003, 54(8):800-5; Jucaite A et al, Eur J Nucl Med Mol Imaging. 2006, 33(6):657-68; and Lundberg J et al, Int J Neuropsychopharmacol. 2007, 10(6):777-85.” left out

[5] = Plasma concentrations at midpoint time of post dosing PET scans; type: in vivo, human; conditions: healthy males
Experimental: (§4) A LC-MS/MS method was developed and validated for the quantitation of Formula I in 0.250 mL of human EDTA plasma in a total of 7 runs, out of which 1 run was rejected. The method utilized stable labeled Formula I as an internal standard. After the addition of the internal standard (equivalent to 285.4 ng/mL in human EDTA plasma) and 0.250 mL of each quality control (QC) sample and calibration standard, 0.525 mL of methyl t-butyl ether (MTBE) was added to the 96-well sample tubes. The organic layer was removed and evaporated to dryness using a liquid-liquid extraction (LLE). The residue was reconstituted and injected into the LC-MS/MS system. Chromatographic separation was achieved through gradient elution on an Acquity UPLC, BEH Shield RP18™, 50 × 2.1 mm, 1.7 µm particle size column. The mobile phase contained water, acetonitrile, ammonium formate, and formic acid. Detection was accomplished using a Sciex API 4000 tandem mass spectrometer in positive ion electrospray SRM mode. The standard curves, which ranged from 1.00 to 1000 ng/mL for Formula I, were fitted to a ⅟x2 weighted linear regression model. The intra-assay precisions, based on four levels of analytical QCs (low, mid, GM, and high), were within 4.2% CV and inter-assay precisions were within 7.2% CV for the analyte. The assay accuracy, expressed as %DEV, was within 6.4% of the nominal concentration values for the analyte. […] The LLOQ response ratio, when compared to the QC0 response ratio, was ≥ 5 in all matrix lots. The analyte was stable in human EDTA plasma for at least 24 h at room temperature, for at least 14 days at -20° C., and following at least 3 freeze- thaw cycles. The processed samples were stable for 72 hours (h) at room temperature.
as §3

[6] = 14-day once-a-day oral multiple ascending dose PK study; type: in vivo, human; design: AUC: unit not given here
From the text: Tabulated, day-14 PK data (Cmax, Ctrough and AUC) for healthy humans in a 14-day, once-a-day oral dosing, multiple ascending dose study of compound of Formula I.

[7] = Stability in human EDTA plasma (LC-MS/MS validation); type: in vitro ADME
Experimental: as §4

[8] = Population PK model (3-compartment) on human PK data; conditions: healthy volunteers, 3-compartment population PK model
From the text: In alternative embodiments, provided are pharmacokinetic modeling and simulation methods for Formula I, comprising using human PK data, as described sequentially in FIG. 25 to FIG. 29. A 3-compartment model best described the human PK data. Between-patient variability in healthy volunteers were 20.2%.

T3 sequence (P31645 whole entry): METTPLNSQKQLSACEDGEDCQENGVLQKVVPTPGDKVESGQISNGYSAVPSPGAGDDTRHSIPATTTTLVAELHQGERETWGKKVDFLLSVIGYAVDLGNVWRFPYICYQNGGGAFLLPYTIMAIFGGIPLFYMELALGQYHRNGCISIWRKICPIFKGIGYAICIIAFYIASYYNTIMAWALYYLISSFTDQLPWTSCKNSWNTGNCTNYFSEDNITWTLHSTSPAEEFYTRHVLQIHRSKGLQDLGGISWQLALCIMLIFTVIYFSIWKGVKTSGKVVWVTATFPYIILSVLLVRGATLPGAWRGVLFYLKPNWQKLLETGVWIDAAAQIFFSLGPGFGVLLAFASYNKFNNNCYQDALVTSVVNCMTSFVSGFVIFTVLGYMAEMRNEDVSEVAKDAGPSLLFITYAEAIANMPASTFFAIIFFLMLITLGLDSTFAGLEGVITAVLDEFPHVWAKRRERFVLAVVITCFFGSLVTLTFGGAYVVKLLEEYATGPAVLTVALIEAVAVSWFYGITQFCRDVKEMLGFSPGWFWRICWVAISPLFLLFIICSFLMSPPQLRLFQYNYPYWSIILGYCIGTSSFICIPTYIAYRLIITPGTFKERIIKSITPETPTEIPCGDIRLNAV
T4 sequence (Q01959 whole entry): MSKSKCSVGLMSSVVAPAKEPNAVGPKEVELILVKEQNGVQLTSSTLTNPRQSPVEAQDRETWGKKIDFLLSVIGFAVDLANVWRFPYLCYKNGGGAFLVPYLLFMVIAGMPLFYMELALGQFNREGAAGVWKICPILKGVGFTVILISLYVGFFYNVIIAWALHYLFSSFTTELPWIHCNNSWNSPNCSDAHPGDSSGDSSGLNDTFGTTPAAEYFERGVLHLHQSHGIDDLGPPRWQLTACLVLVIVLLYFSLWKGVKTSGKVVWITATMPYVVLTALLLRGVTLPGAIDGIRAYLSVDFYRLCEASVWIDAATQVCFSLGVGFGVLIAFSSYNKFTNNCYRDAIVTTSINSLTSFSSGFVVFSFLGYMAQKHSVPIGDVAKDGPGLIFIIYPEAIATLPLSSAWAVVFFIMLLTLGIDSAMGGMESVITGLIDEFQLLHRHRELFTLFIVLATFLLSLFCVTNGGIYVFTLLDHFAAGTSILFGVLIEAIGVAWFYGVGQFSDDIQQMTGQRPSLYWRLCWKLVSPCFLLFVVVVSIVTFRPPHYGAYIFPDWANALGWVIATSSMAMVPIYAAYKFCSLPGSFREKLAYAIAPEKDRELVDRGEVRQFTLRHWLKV
T2 sequence (P23975 whole entry): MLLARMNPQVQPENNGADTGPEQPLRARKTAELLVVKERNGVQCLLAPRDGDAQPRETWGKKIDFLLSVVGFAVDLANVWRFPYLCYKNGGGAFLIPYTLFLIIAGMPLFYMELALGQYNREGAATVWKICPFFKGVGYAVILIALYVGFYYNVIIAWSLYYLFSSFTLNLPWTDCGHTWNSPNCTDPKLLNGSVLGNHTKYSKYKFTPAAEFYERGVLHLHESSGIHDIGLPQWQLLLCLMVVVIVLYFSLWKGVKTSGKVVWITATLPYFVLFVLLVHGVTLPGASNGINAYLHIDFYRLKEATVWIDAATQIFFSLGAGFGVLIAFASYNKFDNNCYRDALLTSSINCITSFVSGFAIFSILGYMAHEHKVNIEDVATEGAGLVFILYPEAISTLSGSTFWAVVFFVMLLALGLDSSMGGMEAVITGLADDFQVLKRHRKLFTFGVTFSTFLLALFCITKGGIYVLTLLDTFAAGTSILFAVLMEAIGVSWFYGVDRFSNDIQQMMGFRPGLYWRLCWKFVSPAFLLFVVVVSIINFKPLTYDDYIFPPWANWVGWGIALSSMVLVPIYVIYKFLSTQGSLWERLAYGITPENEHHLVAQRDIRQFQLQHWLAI
T1 sequence (Q01959 whole entry): as the sequence (Q01959 whole entry) above

Compound: Clc1ccc(C2CNCc3cc(-c4ccc5ncnn5c4)ccc32)cc1Cl (stereo not drawn) [Formula I, 7-([1,2,4]triazolo[1,5-a]pyridin-6-yl)-4-(3,4-dichlorophenyl)-1,2,3,4-tetrahydroisoquinoline]
- inhibition at 0.1 µM [1]: 92%
- inhibition at 0.1 µM [2]: 84%
- SERT RO% ([3]; 10 mg once-a-day, day 10, 4 h post last dose): 53% and 52%
- SERT RO% ([3]; 10 mg once-a-day, day 14, 24 h post last dose): 47% and 48% and 51%
- SERT RO% ([3]; 30 mg once-a-day, day 10, 4 h post last dose): 71% and 72% and 74%
- SERT RO% ([3]; 30 mg once-a-day, day 14, 24 h post last dose): 69% and 66% and 67%
- SERT RO% ([3]; 45 mg once-a-day, day 10, 4 h post last dose): 73% and 74% and 75%
- SERT RO% ([3]; 45 mg once-a-day, day 14, 24 h post last dose): 73% and 75% and 78%
- SERT RO% ([3]; 60 mg once-a-day, day 10, 4 h post last dose): 70% and 61% and 76%
- SERT RO% ([3]; 60 mg once-a-day, day 14, 24 h post last dose): 76% and 72% and 77%
- SERT occupancy ([3]; multiple doses of 30-60 mg at steady state, healthy male volunteers): 65-75%
- DAT occupancies [4]: ≤ 60%
- DAT occupancies ([4]; listed as formula I): up to 60%
- Formula I plasma concentration ([5]; DAT cohort, 10 mg once-a-day, day 10, 4 h): 214 ng/mL and 173 ng/mL
- Formula I plasma concentration ([5]; DAT cohort, 10 mg once-a-day, day 14, 24 h): 149 ng/mL and 147 ng/mL
- Formula I plasma concentration ([5]; DAT cohort, 45 mg once-a-day, day 10, 4 h): 924 ng/mL and 905 ng/mL
- Formula I plasma concentration ([5]; DAT cohort, 45 mg once-a-day, day 14, 24 h): 668 ng/mL and 673 ng/mL
- Formula I plasma concentration ([5]; DAT cohort, 60 mg once-a-day, day 10, 4 h): 1263 ng/mL
- Formula I plasma concentration ([5]; DAT cohort, 60 mg once-a-day, day 14, 24 h): 991 ng/mL
- Formula I plasma concentration ([5]; SERT cohort, 3 mg once-a-day, day 10, 4 h): 64 ng/mL and 63 ng/mL
- Formula I plasma concentration ([5]; SERT cohort, 3 mg once-a-day, day 14, 24 h): 45 ng/mL and 42 ng/mL
- Formula I plasma concentration ([5]; SERT cohort, 10 mg once-a-day, day 10, 4 h): 184 ng/mL and 212 ng/mL
- Formula I plasma concentration ([5]; SERT cohort, 10 mg once-a-day, day 14, 24 h): 129 ng/mL and 156 ng/mL
- Formula I plasma concentration ([5]; SERT cohort, 30 mg once-a-day, day 10, 4 h): 847 ng/mL and 667 ng/mL
- Formula I plasma concentration ([5]; SERT cohort, 30 mg once-a-day, day 14, 24 h): 434 ng/mL and 567 ng/mL
- Formula I plasma concentration ([5]; SERT cohort, 45 mg once-a-day, day 10, 4 h): 1191 ng/mL and 1105 ng/mL
- Formula I plasma concentration ([5]; SERT cohort, 45 mg once-a-day, day 14, 24 h): 904 ng/mL and 895 ng/mL
- Formula I plasma concentration (ng/ml), Cmax ([6]; healthy person alpha, 3 mg daily oral, day 14, Cmax (blood draw 1-3 h)): 64 ng/mL and 67 ng/mL and 63 ng/mL and 77 ng/mL and 74 ng/mL
- Formula I plasma concentration ([6]; healthy person alpha, 3 mg daily oral, day 14, blood draw 0 h): 36 ng/mL and 40 ng/mL and 31 ng/mL and 51 ng/mL and 44 ng/mL
- Formula I plasma concentration ([6]; healthy person alpha, 3 mg daily oral, day 14, blood draw about 23-24 h): 38 ng/mL and 42 ng/mL and 34 ng/mL and 48 ng/mL and 50 ng/mL
- AUC ([6]; healthy person alpha, 3 mg daily oral, day 14, printed in row of 23-24 h blood draw): 369 and 414 and 338 and 525 and 439 and 374
- Formula I plasma concentration (ng/ml), Cmax ([6]; healthy person alpha, 10 mg daily oral, day 14, Cmax (blood draw 1-3 h)): 249 ng/mL and 243 ng/mL and 285 ng/mL and 259 ng/mL and 242 ng/mL
- Formula I plasma concentration ([6]; healthy person alpha, 10 mg daily oral, day 14, blood draw 0 h): 127 ng/mL and 134 ng/mL and 183 ng/mL and 155 ng/mL and 147 ng/mL
- Formula I plasma concentration ([6]; healthy person alpha, 10 mg daily oral, day 14, blood draw about 23-24 h): 130 ng/mL and 140 ng/mL and 138 ng/mL and 178 ng/mL and 160 ng/mL and 162 ng/mL
- AUC ([6]; healthy person alpha, 10 mg daily oral, day 14, printed in row of 23-24 h blood draw): 1263 and 1447 and 1302 and 1925 and 1884 and 1985
- Formula I plasma concentration (ng/ml), Cmax ([6]; healthy person alpha, 45 mg daily oral, day 14, Cmax (blood draw 1-2 h)): 1570 ng/mL and 1394 ng/mL and 1579 ng/mL and 1348 ng/mL and 1808 ng/mL
- Formula I plasma concentration ([6]; healthy person alpha, 45 mg daily oral, day 14, blood draw 0 h): 866 ng/mL and 695 ng/mL and 862 ng/mL and 791 ng/mL and 957 ng/mL
- Formula I plasma concentration ([6]; healthy person alpha, 45 mg daily oral, day 14, blood draw 23 h): 890 ng/mL and 693 ng/mL and 941 ng/mL and 779 ng/mL and 924 ng/mL
- AUC ([6]; healthy person alpha, 45 mg daily oral, day 14, printed in row of 23 h blood draw): 6276 and 8418 and 6879 and 8712 and 8687 and 9833
- Formula I plasma concentration (ng/ml), Cmax ([6]; healthy person beta, 45 mg daily oral, day 14, Cmax (blood draw 1-3 h)): 1465 ng/mL and 1198 ng/mL and 1313 ng/mL and 1713 ng/mL and 2112 ng/mL
- Formula I plasma concentration ([6]; healthy person beta, 45 mg daily oral, day 14, blood draw 0 h): 832 ng/mL and 732 ng/mL and 714 ng/mL and 973 ng/mL and 1274 ng/mL
- Formula I plasma concentration ([6]; healthy person beta, 45 mg daily oral, day 14, blood draw about 24 h): 929 ng/mL and 649 ng/mL and 749 ng/mL and 1033 ng/mL and 1249 ng/mL
- AUC ([6]; healthy person beta, 45 mg daily oral, day 14, printed in row of 24 h blood draw): 10113 and 9936 and 6959 and 8066 and 11276 and 12977
- stable in human EDTA plasma following freeze-thaw cycles [7]: at least 3 freeze- thaw cycles
- stable in human EDTA plasma at -20° C. ([7]; -20° C.): at least 14 days
- processed samples stable at room temperature ([7]; processed (extracted) samples, room temperature): 72 h
- stable in human EDTA plasma at room temperature ([7]; room temperature): at least 24 h
- Between-patient variability [8]: 20.2%
